Source: ChEMBL document CHEMBL1201862, “PubChem BioAssay data set” (2004)
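Cultured in 96-well plates, cells were exposed to test compound for 48 hours across five concentrations. GI50 = concentration required for 50% inhibition of growth.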 Calls of active or inactive are those of the source. No stated cut-off is given here; in the data, active = GI50 up to about 1.1 µM and inactive = higher.

Assays:
Assay in all cases: NCI-60 cell line screen, 48 h
[1] = system: SNB-19
[2] = system: BT-549
[3] = system: U-251
[4] = system: SN12C
[5] = system: KM12
[6] = system: Malme-3M
[7] = system: SW-620
[8] = system: RPMI-8226
[9] = system: OVCAR-4
[10] = system: Hs-578T
[11] = system: A549
[12] = system: LOX IMVI
[13] = system: NCI/ADR-RES
[14] = system: OVCAR-3
[15] = system: SR
[16] = system: MCF7
[17] = system: MDA-N
[18] = system: ACHN
[19] = system: UACC-257
[20] = system: SF-539
[21] = system: MDA-MB-231
[22] = system: M14
[23] = system: SF-268
[24] = system: HCT-116
[25] = system: TK-10
[26] = system: SK-MEL-5
[27] = system: UACC-62
[28] = system: CAKI-1
[29] = system: NCI-H226
[30] = system: K562
[31] = system: HCT-15
[32] = system: HCC 2998
[33] = system: EKVX
[34] = system: RXF 393
[35] = system: A498
[36] = system: HOP-92
[37] = system: NCI-H460
[38] = system: MDA-MB-435
[39] = system: DU-145
[40] = system: OVCAR-8
[41] = system: SNB-75
[42] = system: MOLT-4
[43] = system: HL-60
[44] = system: SK-MEL-28
[45] = system: PC-3
[46] = system: COLO 205
[47] = system: CCRF-CEM
[48] = system: SK-OV-3
[49] = system: NCI-H522
[50] = system: T47D
[51] = system: IGROV-1
[52] = system: SF-295
[53] = system: UO-31
[54] = system: 786-0
[55] = system: NCI-H23
[56] = system: HOP-62
[57] = system: OVCAR-5
[58] = system: HT-29
[59] = system: SK-MEL-2

Oc1cccc2c(Cl)ccnc12
GI50 [1]: 23 µM (inactive) | GI50 [2]: 13.7 µM (inactive) | GI50 [3]: 1.45 µM (inactive) | GI50 [4]: 1.2 µM (inactive) | GI50 [5]: 4.93 µM (inactive) | GI50 [6]: 6.97 µM (inactive) | GI50 [7]: 0.778 µM (active) | GI50 [8]: 0.499 µM (active) | GI50 [9]: 1.7 µM (inactive) | GI50 [10]: 7.93 µM (inactive) | GI50 [11]: 3.44 µM (inactive) | GI50 [12]: 0.384 µM (active) | GI50 [13]: 2.3 µM (inactive) | GI50 [14]: 0.287 µM (active) | GI50 [15]: 0.243 µM (active) | GI50 [16]: 1.11 µM (active) | GI50 [17]: 3.58 µM (inactive) | GI50 [18]: 1.99 µM (inactive) | GI50 [19]: 3.1 µM (inactive) | GI50 [20]: 2.11 µM (inactive) | GI50 [21]: 1.13 µM (inactive) | GI50 [22]: 1.44 µM (inactive) | GI50 [23]: 0.522 µM (active) | GI50 [24]: 0.279 µM (active) | GI50 [25]: 44.3 µM (inactive) | GI50 [26]: 1.22 µM (inactive) | GI50 [27]: 0.362 µM (active) | GI50 [28]: 2.39 µM (inactive) | GI50 [29]: 7.45 µM (inactive) | GI50 [30]: 0.42 µM (active) | GI50 [31]: 0.305 µM | GI50 [32]: 4.43 µM (inactive) | GI50 [33]: 11.7 µM (inactive) | GI50 [34]: 0.83 µM (active) | GI50 [35]: 15.8 µM (inactive) | GI50 [36]: 2.84 µM (inactive) | GI50 [37]: 3.08 µM (inactive) | GI50 [38]: 2.67 µM (inactive) | GI50 [39]: 5.51 µM (inactive) | GI50 [40]: 0.372 µM (active) | GI50 [41]: 28.5 µM (inactive) | GI50 [42]: 0.376 µM (active) | GI50 [43]: 0.124 µM (active) | GI50 [44]: 7.69 µM (inactive) | GI50 [45]: 1.67 µM (inactive) | GI50 [46]: 14.3 µM (inactive) | GI50 [47]: 0.266 µM (active) | GI50 [48]: 32.9 µM (inactive) | GI50 [49]: 0.741 µM (active) | GI50 [50]: 0.397 µM (active) | GI50 [51]: 1.61 µM (inactive) | GI50 [52]: 0.889 µM (active) | GI50 [53]: 1.37 µM (inactive) | GI50 [54]: 10.9 µM (inactive) | GI50 [55]: 3.15 µM (inactive) | GI50 [56]: 1.95 µM (inactive) | GI50 [57]: 5.22 µM (inactive) | GI50 [58]: 9.51 µM (inactive)

COC(=O)c1c(OC(C)=O)ccc2c1c1c(OC(C)=O)c3ccccc3c(OC(C)=O)c1n2Cc1cc(OC)cc(OC)c1
GI50 [1]: 9.2 µM (inactive) | GI50 [2]: 6.82 µM (inactive) | GI50 [3]: 5.5 µM (inactive) | GI50 [4]: 45.7 µM (inactive) | GI50 [5]: 2.79 µM (inactive) | GI50 [6]: 12 µM (inactive) | GI50 [8]: 3.94 µM (inactive) | GI50 [9]: 4.41 µM (inactive) | GI50 [10]: 14.2 µM (inactive) | GI50 [11]: 6 µM (inactive) | GI50 [13]: 5.78 µM (inactive) | GI50 [14]: 4.51 µM (inactive) | GI50 [15]: 4.44 µM (inactive) | GI50 [16]: 26.1 µM (inactive) | GI50 [17]: 5.12 µM (inactive) | GI50 [18]: 30.8 µM (inactive) | GI50 [19]: 25.7 µM (inactive) | GI50 [20]: 3.09 µM (inactive) | GI50 [21]: 16.3 µM (inactive) | GI50 [22]: 5.11 µM (inactive) | GI50 [23]: 5.09 µM (inactive) | GI50 [59]: 3.31 µM (inactive) | GI50 [24]: 7.82 µM (inactive) | GI50 [25]: 66.7 µM (inactive) | GI50 [26]: 4.06 µM (inactive) | GI50 [27]: 4.41 µM (inactive) | GI50 [28]: 32.1 µM (inactive) | GI50 [29]: 31.3 µM (inactive) | GI50 [30]: 11 µM (inactive) | GI50 [31]: 4.32 µM | GI50 [32]: 2.56 µM (inactive) | GI50 [33]: 2.58 µM (inactive) | GI50 [34]: 8.81 µM (inactive) | GI50 [35]: 23.1 µM (inactive) | GI50 [36]: 1.8 µM (inactive) | GI50 [37]: 3.53 µM (inactive) | GI50 [38]: 6.64 µM (inactive) | GI50 [39]: 38.5 µM (inactive) | GI50 [40]: 4.93 µM (inactive) | GI50 [41]: 7.19 µM (inactive) | GI50 [42]: 17.2 µM (inactive) | GI50 [43]: 7.78 µM (inactive) | GI50 [44]: 24.4 µM (inactive) | GI50 [45]: 4.66 µM (inactive) | GI50 [46]: 26.1 µM (inactive) | GI50 [47]: 6.76 µM (inactive) | GI50 [48]: 9.68 µM (inactive) | GI50 [49]: 3.06 µM (inactive) | GI50 [50]: 3.82 µM (inactive) | GI50 [51]: 9.1 µM (inactive) | GI50 [52]: 18.2 µM (inactive) | GI50 [53]: 6.76 µM (inactive) | GI50 [54]: 36.5 µM (inactive) | GI50 [55]: 9.91 µM (inactive) | GI50 [56]: 8.83 µM (inactive) | GI50 [57]: > 100 µM (inactive) | GI50 [58]: 47.9 µM (inactive)

Cc1ccc2nc(C(=O)O)c(=O)[nH]c2c1
GI50 [1]: > 100 µM (inactive) | GI50 [2]: > 100 µM (inactive) | GI50 [3]: > 100 µM (inactive) | GI50 [4]: > 100 µM (inactive) | GI50 [5]: > 100 µM (inactive) | GI50 [6]: > 100 µM (inactive) | GI50 [7]: > 100 µM (inactive) | GI50 [8]: > 100 µM (inactive) | GI50 [9]: > 100 µM (inactive) | GI50 [10]: > 100 µM (inactive) | GI50 [11]: > 100 µM (inactive) | GI50 [12]: > 100 µM (inactive) | GI50 [13]: > 100 µM (inactive) | GI50 [14]: > 100 µM (inactive) | GI50 [15]: > 100 µM (inactive) | GI50 [16]: > 100 µM (inactive) | GI50 [17]: > 100 µM (inactive) | GI50 [18]: > 100 µM (inactive) | GI50 [19]: > 100 µM (inactive) | GI50 [20]: > 100 µM (inactive) | GI50 [21]: > 100 µM (inactive) | GI50 [22]: > 100 µM (inactive) | GI50 [23]: > 100 µM (inactive) | GI50 [59]: > 100 µM (inactive) | GI50 [24]: > 100 µM (inactive) | GI50 [25]: > 100 µM (inactive) | GI50 [26]: > 100 µM (inactive) | GI50 [27]: > 100 µM (inactive) | GI50 [28]: > 100 µM (inactive) | GI50 [29]: > 100 µM (inactive) | GI50 [30]: > 100 µM (inactive) | GI50 [31]: > 100 µM | GI50 [32]: > 100 µM (inactive) | GI50 [33]: > 100 µM (inactive) | GI50 [34]: > 100 µM (inactive) | GI50 [35]: > 100 µM (inactive) | GI50 [36]: > 100 µM (inactive) | GI50 [37]: > 100 µM (inactive) | GI50 [38]: > 100 µM (inactive) | GI50 [39]: > 100 µM (inactive) | GI50 [40]: > 100 µM (inactive) | GI50 [42]: > 100 µM (inactive) | GI50 [43]: > 100 µM (inactive) | GI50 [44]: > 100 µM (inactive) | GI50 [45]: > 100 µM (inactive) | GI50 [46]: > 100 µM (inactive) | GI50 [47]: > 100 µM (inactive) | GI50 [48]: > 100 µM (inactive) | GI50 [49]: > 100 µM (inactive) | GI50 [50]: > 100 µM (inactive) | GI50 [51]: > 100 µM (inactive) | GI50 [52]: > 100 µM (inactive) | GI50 [53]: > 100 µM (inactive) | GI50 [54]: > 100 µM (inactive) | GI50 [55]: > 100 µM (inactive) | GI50 [56]: > 100 µM (inactive) | GI50 [57]: > 100 µM (inactive) | GI50 [58]: > 100 µM (inactive)
